Measured values reported in US20210401863A1, “TREATMENT AND PREVENTION OF NEISSERIA GONORRHOEAE INFECTION USING CMP-ACTIVATED NONULOSONATE ANALOG COMPOUNDS” (NATIONAL RESEARCH COUNCIL OF CANADA, priority 2015, published 2021).
Read-outs that look alike come from different tables or passages of the source.

How the values were obtained:
[1] = tested on: purified human FH; conditions: from U.S. Pat. No. 9,765,106 / Ser. No. 14/627,396; cited from earlier work
[2] = tested on: N. gonorrhoeae F62 ΔlgtD; conditions: from U.S. patent application Ser. No. 14/627,396; cited from earlier work
[3] = target: T1, gonococcal LOS sialyltransferase (Lst) (Neisseria gonorrhoeae, UniProt P72074); conditions: from U.S. patent application Ser. No. 14/627,396; cited from earlier work
T1 construct: CMP-KDN served as a substrate for gonococcal Lst in the context of live bacteria; endogenous in cells; host or cells: N. gonorrhoeae F62 ΔlgtD (live bacteria)

[4] = tested on: N. gonorrhoeae F62 ΔlgtD; assay type: cell-based, Neisseria gonorrhoeae
Description: Generally, bacteria (F62 ΔlgtD) grown overnight on chocolate agar plates were suspended in gonococcal liquid media supplemented with IsoVitaleX [29] that contained specified concentrations of the CMP-nonulosonate. Bacteria were then incubated at 37° C. for the period specified in each experiment.
Serum bactericidal assays were performed as follows, similar to methods outlined in [32,33] and in U.S. Pat. No. 9,765,106. Bacteria were harvested from an overnight culture on chocolate agar plates and ˜10^5 CFU of Ng were grown in liquid media containing the concentrations of CMP-NuIO as specified for each experiment. Bacteria were diluted in Morse A and ˜2000 CFU of Ng F62 ΔlgtD were incubated with NHS (concentration specified for each experiment). The final reaction volumes were maintained at 150 μL. Aliquots of 25 μL of reaction mixtures were plated onto chocolate agar in duplicate at the beginning of the assay (t0) and again after incubation at 37° C. for 30 minutes (t30). Survival was calculated as the number of viable colonies at t30 relative to t0.
Addition of a terminal Neu5Ac residue to the LNnT LOS of N. gonorrhoeae that occurs in vivo or following the addition of CMP-Neu5Ac to growth media results in resistance to complement-dependent killing. We next determined the effects of LNnT incorporation of KDN on the ability of N. gonorrhoeae F62 ΔlgtD to resist complement-dependent killing by normal human sera at concentrations of 3.3% or 10%. Bacteria were grown either in media alone, or media supplemented with 20 μg/mL of CMP-Neu5Ac or CMP-KDN. In addition, CMP-NulO competition experiments were also performed with CMP-Neu5Ac, CMP-Leg5Ac7Ac and CMP-KDN at CMP-NulO concentrations of either 20 μg/mL or 2 μg/mL as indicated, where the second CMP-NulO was added 15 minutes after the first (Table 1 below). To note, these CMP-NulO competition experiments are a method to examine the ability of select CMP-NulOs to counter the enhanced serum resistance due to CMP-Neu5Ac addition, providing information on their therapeutic potential (as any potential therapeutic will be required to compete with CMP-Neu5Ac in vivo).

[5] = tested on: N. gonorrhoeae H041; experiment: BALB/c mouse vaginal colonization model; assay type: in vivo; conditions: 10 μg intravaginally daily; Premarin treated BALB/c mice
Description: FIG. 2: Female BALB/c mice 5-6 weeks of age (Jackson Laboratories) in the diestrus phase of the estrous cycle were started on treatment (that day) with 0.5 mg of Premarin (Pfizer) given subcutaneously on each of three days; −2, 0 and +2 days (before, the day of and after inoculation) to prolong the estrus phase of the cycle and promote susceptibility to N. gonorrhoeae infection. Antibiotics (vancomycin, colistin, neomycin, trimethoprim and streptomycin) that were ineffective against N. gonorrhoeae were also used to reduce competitive microflora. Mice (n=40) were then infected with 10^6 CFU of strain H041. Three groups of mice (n=10/group) were treated with 10 μg intravaginally daily (first dose was administered 30 minutes before the introduction of bacteria) with one of the following CMP-NulOs in normal saline: CMP-Leg5Ac7Ac, CMP-Neu5Ac9Az or CMP-KDN. A fourth group (n=10) was given saline (vehicle control). Vaginal swabs were obtained daily from each animal, serially diluted and plated on chocolate agar containing vancomycin, colistin, neomycin, trimethoprim and streptomycin (VCNTS) to quantify bacterial loads. A. Median time to clearance was estimated using Kaplan-Meier survival curves; the times to clearance were compared between groups using a log-rank test. P<0.0001 for the control versus each of the treatment groups. Time to clearance between each of the treatment groups was similar (P>0.05). B. The mean area under the curve (log10 CFU vs. time) was computed for each mouse to estimate the bacterial burden over time (cumulative infection); the means under the curves were compared between groups using the Kruskal-Wallis nonparametric rank sum test because distributions were skewed or kurtotic. Groups were compared using Dunn's multiple comparison test. ****, P<0.0001; **, P<0.01; *, P<0.05. The differences among the groups that received CMP-NulOs were not significant.
The mouse model experiments and statistical analysis were conducted as described in the art and in U.S. Pat. No. 9,765,106. […]

[6] = target: T1, gonococcal LOS sialyltransferase (Lst); experiment: mAb 3F11 binding by flow cytometry (incorporation of NulO on LNnT LOS by Lst); assay type: cell-based, N. gonorrhoeae F62 ΔlgtD; conditions: F62 ΔlgtD grown in media with 20 μg/mL CMP-NulO
Description: FIG. 1: CMP-KDN serves as a substrate for gonococcal LOS and incorporation of KDN on gonococcal lacto-N-neotetraose LOS enhances factor H (FH) binding. A. Incorporation of KDN by gonococci. Gonococcal strain F62 ΔlgtD (expresses lacto-N-neotetraose (LNnT) from Hepl) was grown in media containing CMP-KDN (20 μg/mL) and binding of mAb 3F11 was measured by flow cytometry. mAb 3F11 binds only to […] LNnT; substitution of the terminal Gal of LNnT, for example with a NulO, will decrease mAb 3F11 binding. Approximately 5×10^7 bacteria were incubated with mAb 3F11 tissue culture supernatants for 15 minutes at 37° C. Binding of mAb 3F11 was disclosed with anti-mouse IgM FITC (Sigma; dilution of 1:100). Bacteria grown in CMP-Neu5Ac or in media alone were used as positive and negative controls for sialylation, respectively. A representative histogram is shown in the upper panel. […] B. Factor H (FH) binding to gonococci grown in CMP-KDN. Approximately 5×10^7 bacteria grown in media alone (no sialic acid), media plus CMP-Neu5Ac (20 μg/mL; positive control for FH binding) or in media containing CMP-KDN (20 μg/mL) were incubated with purified human FH (20 μg/mL) in HBSS** for 15 minutes at 37° C. and bound FH was detected with affinity isolated goat anti-human FH followed by anti-goat IgG FITC (Sigma; 1:100 dilution). A representative histogram is shown in the upper panel.
FIG. 3: CMP-KDN7N3 serves as a substrate for gonococcal Lst resulting in incorporation of KDN7N3 on gonococcal lacto-N-neotetraose (LNnT) LOS—Incorporation of KDN7N3 by gonococci. Gonococcal strain F62ΔlgtD (expresses lacto-N-neotetraose (LNnT) from Hepl) was grown in media containing CMP-KDN7N3 (20 μg/mL) and binding of mAb 3F11 was measured by flow cytometry. mAb 3F11 binds only to […] LNnT; substitution of the terminal Gal of LNnT, for example with a NulO, will decrease mAb 3F11 binding. Approximately 5×10^7 bacteria were incubated with mAb 3F11 tissue culture supernatants for 15 minutes at 37° C. Binding of mAb 3F11 was disclosed with anti-mouse IgM FITC (Sigma; dilution of 1:100). […]

[7] = tested on: purified human FH; experiment: Factor H (FH) binding to gonococci by flow cytometry; assay type: cell-based; conditions: F62 ΔlgtD grown with 20 μg/mL CMP-NulO, human FH 20 μg/mL
Description: FIG. 1: CMP-KDN serves as a substrate for gonococcal LOS and incorporation of KDN on gonococcal lacto-N-neotetraose LOS enhances factor H (FH) binding. A. Incorporation of KDN by gonococci. Gonococcal strain F62 ΔlgtD (expresses lacto-N-neotetraose (LNnT) from Hepl) was grown in media containing CMP-KDN (20 μg/mL) and binding of mAb 3F11 was measured by flow cytometry. mAb 3F11 binds only to […] LNnT; substitution of the terminal Gal of LNnT, for example with a NulO, will decrease mAb 3F11 binding. Approximately 5×10^7 bacteria were incubated with mAb 3F11 tissue culture supernatants for 15 minutes at 37° C. Binding of mAb 3F11 was disclosed with anti-mouse IgM FITC (Sigma; dilution of 1:100). Bacteria grown in CMP-Neu5Ac or in media alone were used as positive and negative controls for sialylation, respectively. A representative histogram is shown in the upper panel. […] B. Factor H (FH) binding to gonococci grown in CMP-KDN. Approximately 5×10^7 bacteria grown in media alone (no sialic acid), media plus CMP-Neu5Ac (20 μg/mL; positive control for FH binding) or in media containing CMP-KDN (20 μg/mL) were incubated with purified human FH (20 μg/mL) in HBSS** for 15 minutes at 37° C. and bound FH was detected with affinity isolated goat anti-human FH followed by anti-goat IgG FITC (Sigma; 1:100 dilution). A representative histogram is shown in the upper panel. […]

[8] = CMP-Neu5Ac (20 μg/mL) first, labelled CMP-NulO (20 μg/mL) added 15 minutes later
[9] = labelled CMP-NulO (20 μg/mL) first, CMP-Neu5Ac (2 μg/mL) added 15 minutes later
[10] = labelled CMP-NulO (20 μg/mL) first, CMP-Neu5Ac (20 μg/mL) added 15 minutes later

T1 sequence (P72074 whole entry): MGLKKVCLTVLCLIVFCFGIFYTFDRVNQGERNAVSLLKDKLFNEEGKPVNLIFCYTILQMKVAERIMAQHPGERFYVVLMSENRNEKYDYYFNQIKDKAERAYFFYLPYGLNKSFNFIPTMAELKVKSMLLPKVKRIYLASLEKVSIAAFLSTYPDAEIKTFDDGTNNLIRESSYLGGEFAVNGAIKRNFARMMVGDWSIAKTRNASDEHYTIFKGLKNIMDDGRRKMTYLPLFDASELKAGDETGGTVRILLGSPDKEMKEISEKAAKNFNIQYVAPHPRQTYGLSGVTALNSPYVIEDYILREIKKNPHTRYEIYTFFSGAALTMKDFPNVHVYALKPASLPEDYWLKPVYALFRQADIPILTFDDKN

Compound	fH binding to bacteria (earlier results) [1]	serum resistance / serum-mediated killing (earlier results) [2]	substrate for gonococcal LOS sialyltransferase (Lst) (earlier results) [3]	% survival in 3.3% serum [4, 8] [%]	% survival in 10% serum [4, 8] [%]	countering of serum resistance mediated by CMP-Neu5Ac (competition, in words) ([4]; CMP-NulO competition, second CMP-NulO 15 minutes after the first, 3.3% and 10% serum)	% survival in 3.3% serum [4, 9] [%]	% survival in 10% serum [4, 9] [%]	% survival in 3.3% serum [4, 10] [%]	% survival in 10% serum [4, 10] [%]	attenuation of N. gonorrhoeae H041 infection [5]	binding of mAb 3F11 (use as substrate by gonococcal Lst) [6]	% survival in 10% serum ([4]; Table 1, CMP-NulO 20 μg/mL alone) [%]	% survival in 3.3% serum ([4]; Table 5, CMP-NulO 20 μg/mL) [%]	% survival in 10% serum ([4]; Table 5, CMP-NulO 20 μg/mL) [%]	fH binding to bacteria [7]
CC(=O)N[C@@H]([C@@H]1O[C@](OP(=O)(O)OC[C@H]2O[C@@H](n3ccc(N)nc3=O)[C@H](O)[C@@H]2O)(C(=O)O)C[C@H](O)[C@H]1NC(C)=O)[C@@H](C)O [CMP-Leg5Ac7Ac]	not enhance fH binding above levels seen with an unsialylated F62 ΔlgtD control	enhanced serum-mediated killing	can serve as substrates for gonococcal LOS sialyltransferase (Lst)	9	5	blocked serum resistance mediated by CMP-Neu5Ac at both 3.3% and 10% serum concentrations irrespective of the order of addition	6	6	7	3	significantly attenuated	–	–	–	–	–
CC(=O)N[C@H]1[C@H]([C@H](O)[C@H](O)CO)O[C@](OP(=O)(O)OC[C@H]2O[C@@H](n3ccc(N)nc3=O)[C@H](O)[C@@H]2O)(C(=O)O)C[C@@H]1O [CMP-Neu5Ac]	–	–	–	–	–	–	–	–	–	–	–	decreased binding of mAb 3F11 similarly	115	133.03	129.02	Maximal fH binding
